{"source": "patent US20040191902A1", "about": "“Growth and differentiation of stem cells” (Pfizer Inc, priority 2003, published 2004)", "molecules": {"B1": {"name": "mouse recombinant OSM: mouse recombinant oncostatin M (protein, UniProt P53347 25-206, looked up)", "Oncostatin-M": "NRGCSNSSSQLLSQLQNQANLTGNTESLLEPYIRLQNLNTPDLRAACTQHSVAFPSEDTLRQLSKPHFLSTVYTTLDRVLYQLDALRQKFLKTPAFPKLDSARHNILGIRNNVFCMARLLNHSLEIPEPTQTDSGASRSTTTPDVFNTKIGSCGFLWGYHRFMGSVGRVFREWDDGSTRSRR"}}, "key": {"[1]": {"test_system": "CYP3a, CYP2d, CYP2e1 and CYP1a2 in hepatocyte-like cells", "experiment": "Conversion of test compounds by hepatocyte-like cells (HPLC and mass spectrometry of supernatants)", "experimental": "The presence of CYP proteins in the hepatocyte-like cells was also determined by monitoring the conversion of certain compounds added to the hepatocyte-like cells. Two test compounds (7-ethoxy-coumarin and dextromethorphan) were added to hepatocyte-like cells. The supernatants of the cells were then subjected to high pressure liquid chromatography (HPLC) and mass spectrometry to identify products of the conversion of the test compounds by CYP3a, CYP2d, CYP2e1 and CYP1a2."}, "hepatocyte-like cells": {"test_system": "hepatocyte-like cells", "experiment": "Dibenzylfluorescein (DBF) assay for metabolic activity of hepatocyte-like cells", "assay_type": "in vitro ADME, mouse", "settings": "hepatocyte-like cells differentiated in presence or absence of HPO", "experimental": "Another test that was used to characterize the hepatocyte-like cells is the dibenzylfluorescein (DBF) assay for metabolic activity. See, for example, Stresser et al., Drug Metab. Disp., 28:1440-48 (2000). These assays were conducted using a DBF compound (Molecular Probes, Eugene Oreg.) according to the manufacturer's recommendations."}, "4MBr-5 cell line": {"test_system": "4MBr-5 cell line", "settings": "3H-thymidine incorporation, typical range; cited from earlier work"}, "TF-1 cell line": {"test_system": "TF-1 cell line", "settings": "proliferation of TF-1; typical range; cited from earlier work"}, "Balb/3T3 cell line": {"test_system": "Balb/3T3 cell line", "settings": "3H-thymidine incorporation, typical range; cited from earlier work"}, "[2]": {"test_system": "cells differentiating from ES cells into hepatocyte-like cells", "experiment": "In vitro differentiation of mouse ES cells into hepatocyte-like cells with hepatopoietin added to the media", "assay_type": "cell-based", "experimental": "Mouse ES cells were differentiated into hepatocyte-like cells as described above, with the addition of 50 ng/ml mouse hepatopoietin protein to the HepII, HepIII and/or HepIV media. The mouse hepatopoietin protein consisted of a portion of the wild-type protein, which portion has the amino acid sequence set forth in SEQ ID NO: 16.\nThe presence of hepatopoietin in either medium had this effect, but the strongest effect was seen when it was included in all three media, i.e., during the middle stage, the late stage and the maturation and selection stage. In this case, it appeared that over 90% of the cells in the culture were hepatocyte-like cells."}, "NIH/3T3 cells": {"test_system": "NIH/3T3 cells", "settings": "3H-thymidine incorporation, quiescent NIH/3T3; typical range; cited from earlier work"}}, "data": [{"molecule": "CCOc1ccc2ccc(=O)oc2c1", "note": "[7-ethoxy-coumarin]", "values": [{"measurement": "conversion products by CYP3a, CYP2d, CYP2e1 and CYP1a2", "setting": "[1]; hepatocytes", "result": "expected conversion products were obtained"}]}, {"molecule": "O=C(OCc1ccccc1)c1ccccc1-c1c2ccc(=O)cc-2oc2cc(OCc3ccccc3)ccc12", "note": "[DBF, dibenzylfluorescein]", "values": [{"measurement": "DBF assay for metabolic activity", "setting": "hepatocyte-like cells", "result": "positive"}]}, {"molecule": "COc1ccc2c(c1)[C@]13CCCC[C@@H]1[C@H](C2)N(C)CC3", "note": "[dextromethorphan]", "values": [{"measurement": "conversion products by CYP3a, CYP2d, CYP2e1 and CYP1a2", "setting": "[1]; added to hepatocyte-like cells, supernatants by HPLC and mass spectrometry", "result": "expected conversion products were obtained"}]}, {"molecule": "human recombinant HGF: human recombinant hepatocyte growth factor", "values": [{"measurement": "ED50", "setting": "4MBr-5 cell line", "result": "20 to 40", "unit": "ng/mL"}]}, {"molecule": "human recombinant OSM: human recombinant oncostatin M", "values": [{"measurement": "ED50", "setting": "TF-1 cell line", "result": "0.1 to 3", "unit": "ng/mL"}]}, {"molecule": "human recombinant aFGF: human recombinant acidic fibroblast growth factor", "values": [{"measurement": "ED50", "setting": "Balb/3T3 cell line", "result": "2 to 10", "unit": "ng/mL"}]}, {"molecule": "mouse HPO: portion of wild-type mouse hepatopoietin, 125 amino acids, SEQ ID NO: 16, produced in E. coli", "values": [{"measurement": "proliferation of cells giving rise to hepatocyte-like cells", "setting": "[2]; 50 ng/ml in HepII, HepIII and/or HepIV media", "result": "stimulates the proliferation"}, {"measurement": "cells in the culture that were hepatocyte-like cells", "setting": "[2]; 50 ng/ml included in all three media (middle, late, maturation and selection stages)", "result": "over 90%"}]}, {"molecule": "B1", "values": [{"measurement": "ED50", "setting": "NIH/3T3 cells", "result": "2 to 4", "unit": "ng/mL"}]}]}
